Assay results from ChEMBL document CHEMBL1130428, “Design, synthesis, and cocrystal structure of a nonpeptide Src SH2 domain ligand” (J Med Chem, 1997).

Target: Tyrosine-protein kinase transforming protein Src (Rous sarcoma virus)
Assay: Inhibition of [125I]phosphopeptide binding to Src SH2 domain.

Structure (SMILES)	IC50 [µM]
CN(CCCC1CCCCC1)C(=O)[C@H](CCC(=O)O)NC(=O)NCc1ccc(OP(=O)(O)O)cc1	12
CC[C@H](C)[C@H](NC(=O)[C@H](CCC(=O)O)NC(=O)[C@H](CCC(=O)O)NC(=O)[C@@H](CC(=O)O)Cc1ccc(OP(=O)(O)O)cc1)C(=O)N[C@@H](CCC(=O)O)C(=O)O	0.4
